Source: patent US20190297888A1, “FUNGICIDAL COMPOUNDS AND MIXTURES FOR FUNGAL CONTROL IN CEREALS” (Dow AgroSciences LLC, priority 2016, published 2019)

Tests used:
[1] = test system: Puccinia striiformis (PUCCST); assay: Field assessment of Compound I and penthiopyrad on yellow rust of wheat (AUDPC % control); assay type: in vivo; details: AUDPC-based, 2 field trials
Text: (§1) Treatments consisting of the compound of Formula I and fungicide compound penthiopyrad were applied either using individually or as a two-way mixture of penthiopyrad with the compound of Formula I. The compound of Formula I was applied with Agnique BP-420 (50% w/w at 0.3% v/v) at 75 and 150 g ai/ha and Penthiopyrad (Vertisan) was applied at 125 and 200 g ai/ha. Commercial standards used in the studies were Fluxapyroxad (Imtrex), applied at 100 g ai/ha, and Metconazole+Fluxapyroxad (Librax), applied at 161 g ai/ha.
Fungicidal treatments containing the compound of Formula I and penthiopyrad, either individually or as a two-way mixture, were assessed against yellow rust of wheat (PUCCST) in two separate field trials. In the first trial, fungicidal treatments were applied twice at B31-32 (early curative, 2% infection at application on L3) and B37-39 (0% infection at application on L) growth stages of winter wheat (TRZAW, Fairplay variety). The treatments were part of an experimental trial designed as a randomized complete block with four replications and a plot of approximately 1×6 m. Treatments were applied at water volume of 200 L/ha, using a backpack plot sprayer (BKPCKENG, F110-015 Hardi (3) Flat fan nozzle) and pressurized at 200 kPa.
In the second trial, fungicidal treatments containing the compound of Formula I and penthiopyrad, either individually or as a two-way mixture, were applied twice at B31-32 (early curative, 5% infection on L5 at application) and B37-39 (early curative, 5% infection on L1 and L2 at application) growth stages of wheat (TRZAW, Torch variety). The treatment was part of an experimental trial designed as a randomized complete block with four replications and a plot of approximately 2×3 m. Treatments were applied at water volume of 200 L/ha, using a backpack precision plot sprayer (BKCKAIR, F110-03 Hypro (4) Flat fan nozzle) and pressurized at 300 kPa.
(§2) Disease severity (percentage of visual diseased foliage on whole plot or leaves) in both field trials was recorded following EPPO PP1/26 guideline prescriptions. Area under the disease progress curve (AUDPC) was calculated for each plot in both trials using the sets of recorded severity data. Relative AUDPC (% control based on AUDPC) was calculated as percent of the nontreated control. Final results for the control of yellow rust of wheat by the compound of Formula I, penthiopyrad and mixtures are reported as an average of the relative AUDPC calculated over all […] field trials. Statistical analysis was done according to ANOVA and Tukey's test (p=0.10).

[2] = test system: Puccinia triticina (PUCCRT); assay: Field assessment of Compound I and penthiopyrad on brown rust of wheat (AUDPC % control); assay type: in vivo; details: AUDPC-based, 2 field trials
Text: as §1
Fungicidal treatments containing the compound of Formula I and penthiopyrad, either individually or as a two-way mixture, were assessed against brown rust of wheat (PUCCRT) in two separate field trials. In the first trial, fungicidal treatments were applied at B37-39 (protectant, approximately 0% infection at application) growth stages of wheat (TRZAW, MV Vanek variety) under natural infection of brown rust. The treatment was part of an experimental trial designed as a randomized complete block with four replications and a plot of approximately 2×3 m. Fungicidal treatments were applied at a water volume of 200 L/ha, using a backpack plot sprayer with a TEEJET QJ90-2XTT110 015 Nozzle.
In the second trial, fungicidal treatments containing the compound of Formula I and penthiopyrad, either individually or as a two-way mixture, were applied at B33 (curative, approximately 6.6% infection at application) growth stage of wheat (TRZAW, Miradoux variety) under natural infection of brown rust. The treatments were part of an experimental trial designed as a randomized complete block with four replications and a plot of approximately 2×3 m. Fungicidal treatments were applied at a water volume of 200 L/ha, using a backpack plot sprayer with a HARDI MD 110-02 Nozzle.
as §2, with “brown” for “yellow”

SMILES: N#Cc1ccc(Oc2ccc(C(F)(F)C(O)(Cn3ncnc3S)c3ccc(F)cc3F)nc2)cc1 (stereo not shown) [Compound I, 4-((6-(2-(2,4-difluorophenyl)-1,1-difluoro-2-hydroxy-3-(5-mercapto-1H-1,2,4-triazol-1-yl)propyl)pyridin-3-yl)oxy)benzonitrile]
- PUCCST % Control ([1]; rate 75 g ai/ha): 72.8%
- PUCCST % Control ([1]; rate 150 g ai/ha): 76.4%
- PUCCRT % Control ([2]; rate 75 g ai/ha): 93.5%
- PUCCRT % Control ([2]; rate 150 g ai/ha): 94.6%
